Measurements published in US7563946B2, “Plant development regulating gene and its uses” (CropDesign, N.V., priority 2000, dated 2009).

How the values were obtained:
[1] = system: hbt seedlings; details: hbt seedlings treated with ethylene
[2] = system: DR5::GUS; assay: Auxin sensitivity test, DR5::GUS expression in hbt mutant seedlings; format: in vivo, Arabidopsis thaliana
From the text: (§1) However, new methods to detect auxin responses have emerged, for example with synthetic auxin responsive promoter elements binding ARF transcription factors, such as DR5::GUS (Ulmasov et al., 1997). Since there is also a resemblance of the hbt early embryo phenotype to axr6, bdl and mp mutants (Hardtke and Berleth, 1998; Hamann et al., 1999; Hobbie et al 2000), we used the DR5::GUS construct to re-investigated auxin responses in hbt seedlings. In wildtype seedling roots there is a maximum of DR5::GUS staining in the upper part of the columella (FIG. 17A). This peak is absent in hbt seedlings (FIG. 17F) where no GUS staining is visible. Since the specification of the columella cells is defective in hbt seedlings, we wanted to know whether hbt mutant cells are capable of sensing auxin. Therefore, hbt seedlings were incubated for 3 days on media containing different concentrations of the synthetic auxin 2,4 D, and DR5::GUS expression was analysed. […] It is therefore possible that the HBT gene has a role in the perception of auxin levels.
(§2) DR5::GUS expression in wt roots (A-E) and in hbt seedlings […]. Three days post germination seedlings were transferred to 0.5 GM plates (A and F) and 0.5 GM plates containing 10^−9 M 2,4 D (B and G), 10^−8 M 2,4 D (C and H), 10^−7 M 2,4 D (D and I) and 10^−6 M 2,4 D (E and J) and incubated for another three days. Mutants are shown at 10× magnification of the wildtype seedling.
(§3) DR5::GUS constructs was used (Ulmasov et al., 1997b). Seedlings were germinated on 0.5 GM medium as described, 3 dpg transferred to fresh 0.5 GM plates containing different concentrations of 2,4 D or IAA (5.10^−9 M until 5.10^−6 M) (see FIG. 17) and incubated for an additional 3 days. After that the b-glucuronidase was visualized as described (Willemsen et al., 1998).

[3] = system: DR5::GUS; assay: Auxin sensitivity test, DR5::GUS expression in wildtype seedlings; format: in vivo, Arabidopsis thaliana; details: 3 days on medium
From the text: as §1, §2, §3

Structure (SMILES)	Re-specification of epidermal cells on the hypocotyl [1]	DR5::GUS expression in hbt hypocotyls ([2]; 5.10^-6 M, 3 days on medium)	DR5::GUS expression in hbt root pole ([2]; 5.10^-7 M, 3 days on medium)	DR5::GUS staining in hbt seedlings ([2]; 5.10^-9 M until 5.10^-8 M, 3 days on medium)	DR5::GUS expression in hbt embryos compared to wildtype ([2]; embryos, after induction)	Auxin sensitivity of hbt seedlings (synthetic auxin response element) ([2]; hbt seedlings versus wildtype)	DR5::GUS expression in wildtype hypocotyls ([3]; 5.10^-6 M)	DR5::GUS expression in wildtype root ([3]; 5.10^-7 M)	DR5::GUS expression in wildtype roots ([3]; 5.10^-9 M until 5.10^-8 M)
C=C [ethylene]	a large number of ectopic outgrowths was induced								
O=C(O)COc1ccc(Cl)cc1Cl [2,4 D]		strong DR5 expression	a DR5 peak in the root pole of hbt	no staining observed	no differences compared to wildtype	altered auxin sensitivity	never observed any ectopic DR5 expression	quite intense and throughout the entire root	ectopic expression of the DR5::GUS promoter in the meristem of wildtype roots
